Tests used:
[1] = target: T1, Type-2 angiotensin II receptor (Rattus norvegicus, UniProt P35351); experiment: Binding affinity to AT2 receptor in rat midbrain binding assay; format: tissue-based
T1 sequence (P35351 whole entry): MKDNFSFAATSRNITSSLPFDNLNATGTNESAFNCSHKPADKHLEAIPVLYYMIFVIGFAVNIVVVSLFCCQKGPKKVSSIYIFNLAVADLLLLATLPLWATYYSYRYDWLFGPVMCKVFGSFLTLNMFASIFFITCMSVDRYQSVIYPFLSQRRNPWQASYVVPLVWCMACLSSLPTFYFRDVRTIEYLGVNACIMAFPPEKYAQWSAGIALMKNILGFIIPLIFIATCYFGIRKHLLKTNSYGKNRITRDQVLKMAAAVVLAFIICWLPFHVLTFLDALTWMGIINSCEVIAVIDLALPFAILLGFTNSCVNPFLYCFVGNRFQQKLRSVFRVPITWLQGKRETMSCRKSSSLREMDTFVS

[2] = target: T2, Type-1 angiotensin II receptor (Oryctolagus cuniculus, UniProt P34976); experiment: Binding affinity to Angiotensin II receptor, type 1 in rabbit aorta binding assay; format: tissue-based
T2 sequence (P34976 whole entry): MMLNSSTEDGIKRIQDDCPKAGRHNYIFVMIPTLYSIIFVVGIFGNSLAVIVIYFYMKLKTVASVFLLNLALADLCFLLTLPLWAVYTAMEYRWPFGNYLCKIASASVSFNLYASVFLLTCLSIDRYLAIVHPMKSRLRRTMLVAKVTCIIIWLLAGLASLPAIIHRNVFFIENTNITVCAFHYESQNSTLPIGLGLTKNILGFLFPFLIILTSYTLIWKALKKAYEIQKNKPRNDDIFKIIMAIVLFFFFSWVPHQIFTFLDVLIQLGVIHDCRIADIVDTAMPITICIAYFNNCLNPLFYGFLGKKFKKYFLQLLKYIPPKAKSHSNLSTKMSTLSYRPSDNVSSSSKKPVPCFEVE

Q: What does the source list for CCCc1nc2c(C)ccnc2n1Cc1ccc2c(c1)SC(c1ccccc1)(c1nn[nH]n1)S2 (stereo not drawn)?
A: IC50 [1]: 15000 nM; IC50 [2]: 35 nM

Q: Which results are given for CCCc1nc2c(C)ccnc2n1Cc1ccc2c(c1)OC(c1ccccc1)(c1nn[nH]n1)O2 (stereo not drawn)?
A: IC50 [1]: 16000 nM; IC50 [2]: 45 nM

Q: Which results are given for CCCc1nc2c(C)ccnc2n1Cc1ccc2c(c1)OC(C(=O)O)(c1ccccc1)O2 (stereo not drawn)?
A: IC50 [1]: 2800 nM; IC50 [2]: 56 nM

Q: What does the source list for CCCc1nc2c(C)ccnc2n1Cc1ccc2c(c1)SC(C(=O)O)(c1ccccc1)S2 (stereo not drawn)?
A: IC50 [1]: 8100 nM; IC50 [2]: 34 nM

Source: ChEMBL document CHEMBL1127264, “Substituted 1,3-benzodioxole & 1,3-benzodithiole -2-carboxylates and their tetrazole analogs with potent binding affinity to the angiotensin II AT1 receptor” (Bioorg Med Chem Lett, 1994)
